Source: patent US8328934B2, “Crystal of GTP Cyclohydrolase Type IB” (priority 2007, dated 2012)
Where two headings read alike, the source gives them in different places.

Key:
Assay type in all cases: biochemical
[1] = biological target: T1, B. subtilis GCYH-IB (Bacillus subtilis, UniProt P94398); settings: for [Metal] (metal concentration for optimal activity): apoenzyme 2 μM, metal 0.1 μM-4 mM, 0.1 mM GTP; for metal ion supports catalysis: apoenzyme assayed with specific metal ions over a broad concentration range; for relative activity (%): at the metal concentration for optimal activity, relative to Mn(II)
T1 construct: His6 (cleaved yes); made in house; host or cells: E. coli BL21 (DE3), pET-30 Xa/LIC plasmid pSAB-9-61
T1 sequence (P94398 1-304): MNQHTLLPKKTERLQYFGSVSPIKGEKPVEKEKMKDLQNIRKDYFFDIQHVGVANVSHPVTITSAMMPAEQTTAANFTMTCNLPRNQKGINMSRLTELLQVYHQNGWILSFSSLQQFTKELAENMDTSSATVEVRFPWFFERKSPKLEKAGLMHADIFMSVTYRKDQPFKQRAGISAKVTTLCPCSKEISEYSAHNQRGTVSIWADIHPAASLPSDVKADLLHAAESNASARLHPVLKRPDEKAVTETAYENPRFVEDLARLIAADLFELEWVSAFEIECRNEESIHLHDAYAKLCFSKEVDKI
Protocol: It is well established that GCYH-IA uses a bound Zn^2+ ion for activity. Nichol et al., 1985. To investigate the metal dependence of GCYH-IB, the purified recombinant B. subtilis enzyme was assayed for activity in the presence of a variety of metal ions or EDTA. […] To obtain unambiguous, quantitative data on the effect of various metal ions on catalytic activity, the enzyme was first demetallated by dialyzing against an EDTA/Chelex-containing buffer to generate the apoenzyme, which was then assayed in the presence of specific metal ions over a broad concentration range.
(§1) Enzyme Activity Assays: All chemicals were of analytical, metal-free grade from Sigma or Fisher. All solutions were prepared with Milli-Q water (18.2 MΩ) and treated with Chelex-100 (BioRad) to remove contaminating metals. Glassware were soaked in nitric acid (10%), then EDTA (5 mM) and rinsed liberally with Chelex-treated Milli-Q water before use. Activity assays were conducted as described previously (El Yacoubi et al, 2006) using either variable concentrations of metal or EDTA (5 mM), and 0.1 mM GTP.
(§2) Apoenzyme Preparation: Metal ions were removed from B. subtilis and N. gonorrhoeae GCYH-IB by incubating the purified, recombinant protein (0.5 ml) with EDTA (5 mM, 1 hr, 21° C.) followed by dialysis thrice against a 4-liter solution of Tris-HCl (50 mM, pH 8.0), KCl (50 mM), EDTA (5 mM) and a few grams of Chelex-100. The resulting apoenzyme was dialyzed thrice against 3 L of Tris-HCl (50 mM, pH 8.0), KCl (50 mM), and Chelex-100 to remove EDTA and passed through Chelex-100 resin (5 ml protein solution per 3 ml resin) prior to activity assays. Protein concentrations were determined spectrophotometrically.
Metal Activation Studies: The B. subtilis apoenzyme (2 μM) was incubated with varying concentrations (0.1 μM-4 mM) of metal chlorides (MnCl2, ZnCl2, MgCl2, NiCl2, CaCl2, CdCl2, CoCl2, CuCl2, CoCl3, FeCl3) or Fe(SO4) in standard buffer (100 mM HEPES, pH 8.0, 100 mM KCl) for 10 min at 37 C, and assayed for activity as described above. All assays involving Fe^2+ were conducted in an anaerobic chamber with degassed and N2-purged buffers.

[2] = biological target: T1, B. subtilis GCYH-IB; assay: Effect of zinc on GCYH-IB activity in the presence of Mn(II); settings: 600 μM Mn(II)
Protocol: (§3) The presence of both Zn^2+ and Mn^2+ in a reaction assay results in diminished activity (i.e. Zn^2+ is an inhibitor versus Mn^2+, Table 6). All of the metals bind the enzymes with low affinity, such that running the protein over a G-25 column or dialyzing against metal free buffer removed the protein bound metal.
as §1, §2

[3] = biological target: T2, N. gonorrhoeae GCYH-IB (Neisseria gonorrhoeae, UniProt Q5F9K6); assay: as above; settings: 600 μM Mn(II)
T2 construct: His6 (cleaved yes); made in house; host or cells: E. coli BL21 (DE3), pET-30 Xa/LIC plasmid pSAB-8-142
T2 sequence (Q5F9K6 1-257): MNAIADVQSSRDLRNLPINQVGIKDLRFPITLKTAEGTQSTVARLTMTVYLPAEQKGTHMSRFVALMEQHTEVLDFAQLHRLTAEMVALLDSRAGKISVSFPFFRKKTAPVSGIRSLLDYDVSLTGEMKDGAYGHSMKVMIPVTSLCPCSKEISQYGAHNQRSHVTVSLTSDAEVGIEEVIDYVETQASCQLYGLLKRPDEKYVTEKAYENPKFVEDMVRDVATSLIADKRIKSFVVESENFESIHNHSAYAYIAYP
Protocol: as §3, §1, §2

SMILES	[Metal] (metal concentration for optimal activity) [1] [µM]	metal ion supports catalysis [1]	relative activity (%) [1] [%]	also measured
[Mn+2] [Mn(II)]	500	catalysis is supported	100	
[Cu+2] [Cu(II)]		fail to support activity	0	
O=C(O)CN(CCN(CC(=O)O)CC(=O)O)CC(=O)O [EDTA, reference compound]				activity in the presence of EDTA [1]: no activity was observed
[Co+3] [Co(III)]			0	
[Zn+2] [Zn(II)]	50	catalysis is supported	14 ± 1	optimum metal concentration required for catalysis, fold lower than for Mn^2+ ([1]; Zn^2+ versus Mn^2+): roughly 10 fold; relative activity (%) ([2]; 0.5 μM zinc): 84%; relative activity (%) ([2]; 1 μM zinc): 41%; relative activity (%) ([2]; 2 μM zinc): 34%; relative activity (%) ([2]; 4 μM zinc): 35%; relative activity (%) ([2]; 10 μM zinc): 35%; relative activity (%) ([2]; 20 μM zinc): 26%; relative activity (%) ([2]; 40 μM zinc): 23%; relative activity (%) ([3]; 0.5 μM zinc): 93%; relative activity (%) ([3]; 1 μM zinc): 68%; relative activity (%) ([3]; 2 μM zinc): 57%; relative activity (%) ([3]; 4 μM zinc): 47%; relative activity (%) ([3]; 10 μM zinc): 53%; relative activity (%) ([3]; 20 μM zinc): 45%; relative activity (%) ([3]; 40 μM zinc): 45%
[Fe+3] [Fe(III)]			0	
[Mg+2] [Mg(II)]	100	catalysis is supported	43 ± 4	
[Fe+2] [Fe(II)]	1000		75 ± 8	
[Ca+2] [Ca(II)]		fail to support activity	0	
[Ni+2] [Ni(II)]	100	catalysis is supported	9.8 ± 1.3	
[Cd+2] [Cd(II)]		fail to support activity	0	
[Co+2] [Co(II)]	100		24 ± 3	
